Results on one compound are retold here after patent US12673964B2, “Crystal of thyroid hormone B receptor agonist, process for preparing the same and use thereof” (GANNEX PHARMA CO., LTD., priority 2020, dated 2026).

Data set [1] in a line: Particle size test of crystal form I (micrometer particle size analyzer MS3000, dry method). In kind it is physicochemical. Conditions: particle size analysis. The text has this: The particle size conditions of the crystal form I of the compound of formula I used in the present disclosure are: name/model of detection instrument: micrometer particle size analyzer/MS3000; test method: dry method; sample injection rate: 50%; air pressure: 2.5 bar; slit width: 2.0 mm; refractive index: 1.52; absorption rate: 0.1; shade degree: 0.5% to 6%; background measurement time: 10 s; and sample measurement time: 10 s. The crystal obtained in Example 1 was subject to a particle size test in accordance with the above conditions.

A short description of data set [2]: Hygroscopicity test of crystal form I (dynamic moisture adsorption instrument, DVS). Conditions: for Weight gain percentage at 80% relative humidity: DVS, about 28 mg of crystal. In kind it is physicochemical. Here is the method: About 28 mg of the crystal obtained in Example 1 was taken. The hygroscopicity of the crystal was determined with dynamic moisture adsorption instrument in accordance with the above conditions. The weight gain of crystal form I was within 0.2% at 80% relative humidity.

Where only a bound is given, the exact number is not on record here.

Take `Cc1cc(OC[P@@]2(=O)OCC[C@@H](c3cccc(Cl)c3)O2)cc(C)c1Cc1ccc(O)c(C(C)C)c1` [Example 1]: in data set [1], the “Specific Area” value is 807.1 m^2/kg. For the same compound, the particle size Dv10 in data set [1] (Dv 10) amounted to 6.41 µm. The compound further came in with a particle size Dv50 in data set [1] (Dv 50) of 20.3 µm. Moreover, the particle size Dv90 in data set [1] (Dv 90) worked out at 48.2 µm. In addition, in data set [1] (Dv 95), the particle size Dv95 came out at 59.1 µm. Moreover, the “Weight gain percentage at 80% relative humidity” value in data set [2] is listed as 0.1213%; in data set [2] (listed as crystal form I) it was not above 0.2%. Besides, the Hygroscopicity class result in data set [2] (guidance principle of drug hygroscopicity, Appendix XIXJ of the Chinese Pharmacopoeia 2015) is recorded as “no or nearly no hygroscopicity”.
